The values that follow come from US20250163054A1, “SUBSTITUTED BICYCLIC HETEROARYL COMPOUNDS USEFUL AS INHIBITORS OF TLR9” (Bristol-Myers Squibb Company, priority 2022, published 2025).

pIC50: −log10 of the molar value.

What all share (type): cell-based
The target of experiment [1] is T1, human TLR7 (Homo sapiens, UniProt Q9NYK1).
T1 construct: host or cells: HEK-Blue cells (HEK293-derived reporter line)
T1 sequence (Q9NYK1 27-1049): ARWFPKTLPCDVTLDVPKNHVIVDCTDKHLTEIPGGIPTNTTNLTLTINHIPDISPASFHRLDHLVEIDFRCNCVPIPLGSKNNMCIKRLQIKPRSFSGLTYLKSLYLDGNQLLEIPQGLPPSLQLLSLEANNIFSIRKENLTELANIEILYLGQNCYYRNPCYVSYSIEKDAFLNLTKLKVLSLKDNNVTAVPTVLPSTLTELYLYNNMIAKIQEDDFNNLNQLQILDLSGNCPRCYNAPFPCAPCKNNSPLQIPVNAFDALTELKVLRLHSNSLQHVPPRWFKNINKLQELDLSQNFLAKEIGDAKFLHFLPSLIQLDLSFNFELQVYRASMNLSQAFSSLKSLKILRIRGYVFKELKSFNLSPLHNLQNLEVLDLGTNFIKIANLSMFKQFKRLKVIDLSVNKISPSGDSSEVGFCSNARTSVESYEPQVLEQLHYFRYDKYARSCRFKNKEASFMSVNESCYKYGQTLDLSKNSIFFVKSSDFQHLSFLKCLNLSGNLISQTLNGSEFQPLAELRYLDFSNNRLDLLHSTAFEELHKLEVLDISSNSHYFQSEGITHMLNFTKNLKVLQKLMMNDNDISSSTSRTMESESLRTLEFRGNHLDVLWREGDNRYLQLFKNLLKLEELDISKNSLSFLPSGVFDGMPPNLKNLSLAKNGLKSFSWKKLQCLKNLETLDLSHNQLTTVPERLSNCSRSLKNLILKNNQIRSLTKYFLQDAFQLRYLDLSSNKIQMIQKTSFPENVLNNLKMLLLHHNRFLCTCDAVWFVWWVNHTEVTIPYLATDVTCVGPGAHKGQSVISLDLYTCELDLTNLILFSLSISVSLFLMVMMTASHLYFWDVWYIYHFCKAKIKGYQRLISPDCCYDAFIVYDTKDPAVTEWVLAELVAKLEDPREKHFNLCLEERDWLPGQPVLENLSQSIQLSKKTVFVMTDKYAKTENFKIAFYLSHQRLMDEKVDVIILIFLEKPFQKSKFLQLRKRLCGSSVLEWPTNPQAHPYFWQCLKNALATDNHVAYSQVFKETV
In words: TLR7/8/9 Inhibition Reporter Assays (TLR7). As to conditions: HEK-Blue cells overexpressing human TLR7, SEAP reporter, stimulated with TLR7 ligand gardiquimod. An outline of the steps:
(§1)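 HEK-Blue cells overexpressing human TLR7, TLR8 or TLR9 with NF-κB/AP-1-driven SEAP reporter, pre-treated 60 min with compound ([…]). Stimulated with […] (TLR7), […] (TLR8) or ODN2006 200 nM (TLR9), then 22 h at 37° C; SEAP measured, % inhibition relative to agonist-plus-DMSO and known-inhibitor wells.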
(In a reporter assay the amount or activity of a reporter protein is the signal.)

In experiment [2] the target is T2, human TLR8 (Homo sapiens, UniProt Q9NR97).
T2 construct: host or cells: HEK-Blue cells (HEK293-derived reporter line)
T2 sequence (Q9NR97 27-1041): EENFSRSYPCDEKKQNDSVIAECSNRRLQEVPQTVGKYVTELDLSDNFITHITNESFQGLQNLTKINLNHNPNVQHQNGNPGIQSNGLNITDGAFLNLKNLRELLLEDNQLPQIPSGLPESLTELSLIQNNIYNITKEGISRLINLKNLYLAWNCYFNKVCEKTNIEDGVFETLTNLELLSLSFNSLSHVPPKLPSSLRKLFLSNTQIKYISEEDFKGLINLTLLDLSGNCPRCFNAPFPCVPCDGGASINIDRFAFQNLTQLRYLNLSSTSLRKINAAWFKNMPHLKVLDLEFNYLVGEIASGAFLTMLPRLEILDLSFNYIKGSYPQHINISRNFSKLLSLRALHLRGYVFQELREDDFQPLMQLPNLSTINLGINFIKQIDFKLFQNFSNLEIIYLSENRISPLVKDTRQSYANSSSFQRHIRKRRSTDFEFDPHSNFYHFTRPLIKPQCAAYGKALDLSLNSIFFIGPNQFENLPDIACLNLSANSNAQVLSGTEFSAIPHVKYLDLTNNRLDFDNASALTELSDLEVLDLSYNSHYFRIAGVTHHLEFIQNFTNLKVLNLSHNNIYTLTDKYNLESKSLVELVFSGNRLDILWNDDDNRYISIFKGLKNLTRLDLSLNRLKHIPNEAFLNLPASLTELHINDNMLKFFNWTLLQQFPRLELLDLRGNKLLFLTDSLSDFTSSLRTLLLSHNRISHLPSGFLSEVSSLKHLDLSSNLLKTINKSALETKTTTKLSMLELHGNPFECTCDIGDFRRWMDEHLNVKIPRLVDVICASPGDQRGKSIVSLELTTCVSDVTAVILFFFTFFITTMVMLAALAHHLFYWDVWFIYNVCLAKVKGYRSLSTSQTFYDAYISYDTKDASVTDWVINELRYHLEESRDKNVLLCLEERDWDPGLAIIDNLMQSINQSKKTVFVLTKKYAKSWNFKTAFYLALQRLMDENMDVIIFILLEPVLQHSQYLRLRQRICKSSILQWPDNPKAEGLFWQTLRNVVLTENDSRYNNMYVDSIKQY
In words: TLR7/8/9 Inhibition Reporter Assays (TLR8). As to conditions: HEK-Blue cells overexpressing human TLR8, SEAP reporter, stimulated with TLR8 ligand R848. An outline of the steps:
as §1

Experiment [3] deals with T3, human TLR9 (Homo sapiens, UniProt Q9NR96).
T3 construct: host or cells: HEK-Blue cells (HEK293-derived reporter line)
T3 sequence (Q9NR96 26-1032): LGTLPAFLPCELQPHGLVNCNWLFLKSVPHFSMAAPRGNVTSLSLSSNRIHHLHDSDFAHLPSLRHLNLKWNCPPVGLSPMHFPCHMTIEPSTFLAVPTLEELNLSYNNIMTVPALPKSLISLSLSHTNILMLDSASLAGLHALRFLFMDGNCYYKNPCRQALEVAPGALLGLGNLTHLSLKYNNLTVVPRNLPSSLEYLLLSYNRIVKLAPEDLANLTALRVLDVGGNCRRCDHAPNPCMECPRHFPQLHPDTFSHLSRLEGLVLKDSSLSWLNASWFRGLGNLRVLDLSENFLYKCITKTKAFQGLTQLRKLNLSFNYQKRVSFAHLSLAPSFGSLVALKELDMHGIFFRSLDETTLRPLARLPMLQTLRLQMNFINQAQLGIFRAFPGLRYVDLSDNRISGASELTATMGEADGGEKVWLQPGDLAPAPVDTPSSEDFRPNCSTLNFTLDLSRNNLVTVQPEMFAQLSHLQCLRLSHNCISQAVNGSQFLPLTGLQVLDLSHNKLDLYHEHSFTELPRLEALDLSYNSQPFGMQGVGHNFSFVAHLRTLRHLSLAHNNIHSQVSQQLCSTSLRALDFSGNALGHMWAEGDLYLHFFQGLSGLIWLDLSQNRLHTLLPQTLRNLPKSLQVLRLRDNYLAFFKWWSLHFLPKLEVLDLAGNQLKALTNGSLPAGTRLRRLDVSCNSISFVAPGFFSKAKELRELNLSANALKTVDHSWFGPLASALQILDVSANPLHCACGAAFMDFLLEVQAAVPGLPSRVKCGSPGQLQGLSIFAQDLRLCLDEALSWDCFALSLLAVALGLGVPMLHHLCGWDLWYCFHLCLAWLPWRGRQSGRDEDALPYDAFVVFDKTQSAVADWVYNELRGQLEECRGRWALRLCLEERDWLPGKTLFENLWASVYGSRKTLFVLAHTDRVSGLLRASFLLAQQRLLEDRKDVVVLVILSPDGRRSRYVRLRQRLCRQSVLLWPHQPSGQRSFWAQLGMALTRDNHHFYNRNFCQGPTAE
Briefly: TLR7/8/9 Inhibition Reporter Assays (TLR9). To be noted: HEK-Blue cells overexpressing human TLR9, SEAP reporter, stimulated with TLR9 ligand ODN2006. An outline of the steps:
as §1

Broadly, the pIC50 is the IC50 on a negative log10 scale, so that one unit is a factor of ten. A higher pIC50 goes with a small IC50. As to `COc1ccc(-c2nc3cnc(-c4ccc(N5CC6(CN(CC(C)C)C6)C5)cc4)cc3n2C2CC2)cc1OC` [Example 85, 1-cyclopropyl-2-(3,4-dimethoxyphenyl)-6-(4-(6-isobutyl-2,6-diazaspiro[3.3]heptan-2-yl)phenyl)-1H-imidazo[4,5-c]pyridine], the pIC50 in experiment [1] was 5.49; in experiment [2], 5.60; in experiment [3], 6.77.

Regarding `COC1CCN(Cc2ccc(-c3ccc(-c4cc5c(nc(-c6ccc(S(C)(=O)=O)cc6)n5C)c(C)n4)cc3)nc2)CC1` [Example 50, 6-(4-(5-((4-methoxypiperidin-1-yl)methyl)pyridin-2-yl)phenyl)-1,4-dimethyl-2-(4-(methylsulfonyl)phenyl)-1H-imidazo[4,5-c]pyridine], the pIC50 in experiment [1] was 5.96; in experiment [2] it was under 4.30; in experiment [3], 6.28.

With `Cc1nc(C2CCN(C3CCN(C(C)C)CC3)CC2)cc2c1nc(-c1ccc(S(C)(=O)=O)cc1)n2C` [Example 38, 6-(1′-isopropyl-[1,4′-bipiperidin]-4-yl)-1,4-dimethyl-2-(4-(methylsulfonyl)phenyl)-1H-imidazo[4,5-c]pyridine], the values for the pIC50 in experiment [1], in experiment [2] and in experiment [3] were 5.11, under 4.30 and 6.89, respectively.

With `Cc1nc(-c2ccc(N3CCN(CCCN4CCOCC4)CC3)cc2)cc2c1nc(-c1ccc(S(C)(=O)=O)cc1)n2C` [Example 52, 4-(3-(4-(4-(1,4-dimethyl-2-(4-(methylsulfonyl)phenyl)-1H-imidazo[4,5-c]pyridin-6-yl)phenyl)piperazin-1-yl)propyl)morpholine], the negative logarithm of the IC50 (pIC50) was 5.77 in experiment [1], 5.59 in experiment [2] and 7.55 in experiment [3].

`CC(C)CN1CC2(CCN(c3ccc(-c4cc5c(cn4)nc(-c4ccc(S(C)(=O)=O)cc4)n5C)cc3)C2)C1` [Example 99, 6-(4-(2-isobutyl-2,6-diazaspiro[3.4]octan-6-yl)phenyl)-1-methyl-2-(4-(methylsulfonyl)phenyl)-1H-imidazo[4,5-c]pyridine]: the negative logarithm of the IC50 (pIC50) was 5.51 in experiment [1], 6.05 in experiment [2] and 6.66 in experiment [3].

Regarding `Cc1nc(-c2ccc(N3CC4(CN(CC(C)C)C4)C3)cc2)cc2c1nc(-c1ccc(S(C)(=O)=O)cc1)n2C` [Example 57, 6-(4-(6-isobutyl-2,6-diazaspiro[3.3]heptan-2-yl)phenyl)-1,4-dimethyl-2-(4-(methylsulfonyl)phenyl)-1H-imidazo[4,5-c]pyridine], the pIC50 in experiment [1] was 5.40; in experiment [2] it was 5.32; in experiment [3] it was 6.82.

Take `Cn1c(-c2ccc(S(C)(=O)=O)cc2)nc2c(C(F)(F)F)nc(C3CCN(C4CCN(CC(C)(C)O)CC4)CC3)cc21` [Example 34, 2-methyl-1-(4-(1-methyl-2-(4-(methylsulfonyl)phenyl)-4-(trifluoromethyl)-1H-imidazo[4,5-c]pyridin-6-yl)-[1,4′-bipiperidin]-1′-yl)propan-2-ol]: the pIC50 in experiment [1] was 5.46; in experiment [2], under 4.30; in experiment [3] it was 6.89.

Consider `COc1ccc(-c2nc3c(C)nc(-c4ccc(N5CCN(C6CCC6)CC5)cc4)cc3n2C)cc1OC` [Example 19, 6-(4-(4-cyclobutylpiperazin-1-yl)phenyl)-2-(3,4-dimethoxyphenyl)-1,4-dimethyl-1H-imidazo[4,5-c]pyridine], for which the values for the pIC50 in experiment [1], in experiment [2] and in experiment [3] were 6.07, under 4.30 and 6.09, respectively.

On to `CC(C)N1CCN(c2ccc(-c3cc4c(cn3)nc(-c3ccc(S(C)(=O)=O)cc3)n4C)cc2)CC1` [Example 70, 6-(4-(4-isopropylpiperazin-1-yl)phenyl)-1-methyl-2-(4-(methylsulfonyl)phenyl)-1H-imidazo[4,5-c]pyridine], for which the negative logarithm of the IC50 (pIC50) in experiment [1] is 5.28; in experiment [2] it was 6.36; in experiment [3], 6.64.

With `COc1cc(-c2nc3c(C)nc(-c4ccc(N5CCN(CC(C)C)CC5)cc4)cc3n2C)cn2ncnc12` [Example 10, 6-(6-(4-(4-isobutylpiperazin-1-yl)phenyl)-1,4-dimethyl-1H-imidazo[4,5-c]pyridin-2-yl)-8-methoxy-[1,2,4]triazolo[1,5-a]pyridine], the pIC50 in experiment [1] is 5.02; in experiment [2], under 4.30; in experiment [3] it was 5.77.

On to `Cc1nc(-c2ccc(N3C[C@@H]4CN(C5CCC5)C[C@@H]4C3)cc2)cc2c1nc(-c1ccc(S(C)(=O)=O)cc1)n2C` [Example 69, 6-(4-((3aR,6aS)-5-cyclobutylhexahydropyrrolo[3,4-c]pyrrol-2(1H)-yl)phenyl)-1,4-dimethyl-2-(4-(methylsulfonyl)phenyl)-1H-imidazo[4,5-c]pyridine], for which the negative logarithm of the IC50 (pIC50) was 5.55 in experiment [1], 5.27 in experiment [2] and 7.43 in experiment [3].
